From PMC11555526, “Development of 2-Aminoadenine-Based Proteolysis-Targeting Chimeras (PROTACs) as Novel Potent Degraders of Monopolar Spindle 1 and Aurora Kinases” (ACS Pharmacology & Translational Science, 2024)

Columns and labels:
AURKB [1] = system: AURKB; parameters: method as in PMID 32338514, PMID 27905678, PMID 27437075, PMID 30232224, PMID 27699881; settings: literature values, introduction and Figure 1; cited from earlier work
AURKA [2] = system: AURKA; parameters: method as in PMID 32338514, PMID 27905678, PMID 27437075, PMID 30232224, PMID 27699881; settings: literature values, introduction and Figure 1; cited from earlier work
human TTK = system: human TTK; parameters: method as in PMID 23940287, PMID 32338514, PMID 27905678, PMID 27437075, PMID 30232224; settings: literature values, introduction and Figure 1; cited from earlier work
AURKB [3] = molecular target: T1, AURKB (Homo sapiens, UniProt Q96GD4); experiment: Immunoblot of AURKB in naive MV4-11 cells; assay type: cell-based; settings: 6 h, 0.1 µM
T1 construct: endogenous in cells; host or cells: naive MV4-11
T1 sequence (Q96GD4 whole entry): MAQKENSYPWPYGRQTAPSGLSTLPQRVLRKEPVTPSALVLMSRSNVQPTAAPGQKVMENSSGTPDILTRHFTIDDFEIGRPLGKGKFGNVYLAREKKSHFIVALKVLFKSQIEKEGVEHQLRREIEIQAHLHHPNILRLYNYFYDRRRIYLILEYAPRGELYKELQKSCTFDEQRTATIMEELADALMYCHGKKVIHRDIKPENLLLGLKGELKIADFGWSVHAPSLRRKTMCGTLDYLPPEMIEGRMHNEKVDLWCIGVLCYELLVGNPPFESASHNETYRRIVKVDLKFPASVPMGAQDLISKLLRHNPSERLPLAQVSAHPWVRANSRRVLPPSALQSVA
Protocol: The cells were treated with compounds or vehicle for indicated time points and lysed in RIPA lysis buffer (50 mM HEPES pH 7.9, 140 mM NaCl, 1 mM EDTA, 1% Triton X-100, 0.1% SDS, 0.1% sodium deoxycholate) containing protease and phosphatase inhibitors (Sigma) for 20 min at 4 °C. Cell lysates were cleared by centrifugation, and protein concentration was determined with bicinchoninic acid assay. Equal amounts of protein per sample were separated by Bis-Tris-PAGE and transferred to PVDF membranes (Millipore). The membranes were blocked with 5% (w/v) nonfat dry milk in TBS-T [20 mM Tris–HCl, pH 7.5, 150 mM NaCl, 0.1% (v/v) Tween-20] for 1 h at room temperature and incubated with primary antibody at 4 °C overnight. Visualization was carried out using horseradish peroxidase (HRP)-labeled secondary antibodies and detected using a chemiluminescent HRP substrate (Millipore) in LAS3000 or LAS4000 mini (Fujifilm). Vinculin, GAPDH, or B-actin were used as a loading control. The loading control was probed along with the target antibody by cutting the membrane. For targets with similar molecular weights, the samples were run in duplicate and probed with their respective loading controls, although only one control was shown in the figure for all targets. The signal was quantified using ImageJ or Image Studio Lite against the corresponding loading controls. Antibodies used in this study were as follows: Aurora A/AIK (Cell Signaling Technology, 3092), Aurora B (Bethyl Laboratories, A300–431A), TTK (Santa Cruz Biotechnology, sc-56968), GAPDH (Cell Signaling Technology, 2118), B-Actin (Sigma, A5441), and Vinculin (Sigma, V9131).
α GAPDH α Vinculin α B-Actin
Figure S2: Cellular degradation studies of SF1-based compounds. […]
Immunoblots of TTK and AURKB. Naive MV4-11 cells were treated with indicated concentration of 44 or 47 G)
(E), 18 (F), and 14 or 20 (G) for 6 h and compared with vehicle treated cells. […]
All HiBiT data are represented as a mean ±s.d. from n=2 replicates. […]

[4] = molecular target: T2, TTK (MV4-11^HiBiT-TTK cells) (Homo sapiens, UniProt P33981); experiment: HiBiT assay, TTK degradation; assay type: cell-based; parameters: key to Dmax (maximal degradation) TTK: compounds with degradation less than 15% reported as “inactive”; settings: 6 h treatment, MV4-11^HiBiT-TTK cells
T2 construct: expressed in transfected cells; host or cells: MV4-11, lentiviral transduction (pRRL-PGK-HiBiT entry vector)
T2 sequence (P33981 1-857): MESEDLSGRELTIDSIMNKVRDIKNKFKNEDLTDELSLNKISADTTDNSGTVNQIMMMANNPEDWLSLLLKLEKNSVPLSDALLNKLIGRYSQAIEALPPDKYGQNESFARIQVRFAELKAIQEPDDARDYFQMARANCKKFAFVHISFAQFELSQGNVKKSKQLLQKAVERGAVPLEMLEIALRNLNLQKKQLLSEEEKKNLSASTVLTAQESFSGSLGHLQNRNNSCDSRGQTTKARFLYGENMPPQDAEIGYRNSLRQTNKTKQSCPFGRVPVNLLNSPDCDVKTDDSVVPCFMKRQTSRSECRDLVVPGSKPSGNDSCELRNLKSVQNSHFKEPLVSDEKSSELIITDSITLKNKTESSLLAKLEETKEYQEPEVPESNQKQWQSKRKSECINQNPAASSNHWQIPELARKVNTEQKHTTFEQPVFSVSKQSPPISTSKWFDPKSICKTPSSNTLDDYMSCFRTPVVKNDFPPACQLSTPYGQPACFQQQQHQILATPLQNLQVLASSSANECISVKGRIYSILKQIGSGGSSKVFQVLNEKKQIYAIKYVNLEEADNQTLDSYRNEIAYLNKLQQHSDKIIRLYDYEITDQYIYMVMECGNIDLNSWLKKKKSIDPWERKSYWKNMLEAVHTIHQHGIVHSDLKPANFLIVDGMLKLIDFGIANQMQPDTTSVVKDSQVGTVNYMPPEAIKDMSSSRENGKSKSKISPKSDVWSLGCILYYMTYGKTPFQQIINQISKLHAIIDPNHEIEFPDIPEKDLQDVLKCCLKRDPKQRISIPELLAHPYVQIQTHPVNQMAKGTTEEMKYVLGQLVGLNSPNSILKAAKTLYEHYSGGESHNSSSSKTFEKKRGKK
How it was run: (§1)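 MV4-11 lines stably expressing HiBiT-tagged AURKA, AURKB or TTK (lentiviral) were treated with serial compound dilutions for the indicated times. Remaining tagged protein was read by lytic HiBiT luminescence, and DC50 was fitted with a four-parameter dose–response equation using concentrations showing sigmoidal behaviour.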

[5] = molecular target: T3, AURKB (MV4-11^AURKB-HiBiT cells) (Homo sapiens, UniProt Q96GD4); experiment: HiBiT assay, AURKB degradation; assay type: cell-based; settings: 6 h treatment
T3 construct: expressed in transfected cells; host or cells: MV4-11, lentiviral transduction (pRRL-PGK vector)
T3 sequence (Q96GD4 1-345 isoform Q96GD4-5): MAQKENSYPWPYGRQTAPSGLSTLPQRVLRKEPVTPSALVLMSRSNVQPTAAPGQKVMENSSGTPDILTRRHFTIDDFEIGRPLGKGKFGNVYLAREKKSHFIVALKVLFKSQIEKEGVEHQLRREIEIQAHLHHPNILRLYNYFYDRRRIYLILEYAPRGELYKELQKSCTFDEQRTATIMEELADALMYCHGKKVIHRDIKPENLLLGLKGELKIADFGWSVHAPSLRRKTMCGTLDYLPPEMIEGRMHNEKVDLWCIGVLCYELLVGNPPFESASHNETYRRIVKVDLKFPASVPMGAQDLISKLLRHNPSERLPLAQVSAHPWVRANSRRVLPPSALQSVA
How it was run: as §1

[6] = molecular target: T4, AURKA (MV4-11^AURKA-HiBiT cells) (Homo sapiens, UniProt O14965); experiment: HiBiT assay, AURKA degradation; assay type: cell-based; settings: 6 h treatment, MV4-11^AURKA-HiBiT cells
T4 construct: expressed in transfected cells; host or cells: MV4-11, lentiviral transduction
T4 sequence (O14965 1-403): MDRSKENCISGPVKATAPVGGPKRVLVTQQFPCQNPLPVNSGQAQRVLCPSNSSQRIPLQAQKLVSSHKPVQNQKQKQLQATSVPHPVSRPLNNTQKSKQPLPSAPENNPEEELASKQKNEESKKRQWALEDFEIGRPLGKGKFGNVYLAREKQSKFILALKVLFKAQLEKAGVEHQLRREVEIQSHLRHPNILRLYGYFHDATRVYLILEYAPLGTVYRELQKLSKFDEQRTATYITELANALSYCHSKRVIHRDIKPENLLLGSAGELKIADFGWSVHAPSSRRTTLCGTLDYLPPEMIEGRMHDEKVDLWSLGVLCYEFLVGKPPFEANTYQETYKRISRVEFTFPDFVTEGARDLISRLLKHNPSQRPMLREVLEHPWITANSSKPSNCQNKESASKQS
How it was run: as §1

MV4-11 cells (naive) = experiment: alamarBlue cell viability assay; assay type: cell-based, human; settings: 72 h treatment, MV4-11 cells (naive)
How it was run: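 Cells exposed to compound concentration series or vehicle for 72 h (unless otherwise stated); alamarBlue added a few hours before end point. Read-out by fluorescence (ex 550/em 600 nm) or absorbance (570 nm, 600 nm reference).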

AURKA [7] = settings: reported PROTACs; cited from earlier work
TTK = system: TTK; parameters: method as in PMID 35084180; settings: reported PROTAC; cited from earlier work
AURKC = settings: read-out: AURKC IC50; literature value, introduction; cited from earlier work

In the case of O=C(Nc1c[nH]nc1-c1nc2ccc(CN3CCOCC3)cc2[nH]1)NC1CC1 [AT9283], the IC50 (AURKB [1]) is given as 3 nM and the IC50 (AURKA [2]) is given as 3 nM.
For COc1cc(S(C)(=O)=O)ccc1Nc1nc2ccc(-c3ccc(NC(=O)[C@H](C)c4ccc(F)cc4)cc3)cn2n1 [BAY1161909], the IC50 (human TTK) is listed as 1 nM.
In the case of Cc1cc(-c2cnn3c(NC[C@H]4C[C@@](C)(O)C4)cc(Oc4cccnc4)nc23)ccc1C(=O)NC1CC1 [CFI-402257], the IC50 (human TTK) is given as 1 nM.
With Cc1ncsc1-c1ccc(CNC(=O)[C@@H]2C[C@@H](O)CN2C(=O)[C@@H](NC(=O)CCC(=O)NCC(=O)N2CCN(c3ccc(Nc4nc(Nc5ccccc5S(=O)(=O)C(C)C)c5nc[nH]c5n4)cc3)CC2)C(C)(C)C)cc1 [Compound 47] the “relative AURKB level (immunoblot quantification, vehicle = 1.00)” value (AURKB [3]) was 1.00, the “DC50 (half-maximal degradation concentration) TTK” value [4] was “– (compounds with degradation less than 25% were not calculated and reported as “–”)” and the “Dmax (maximal degradation) TTK” value [4] was “inactive”. For the same molecule, the “DC50 (half-maximal degradation concentration) AURKB” value [5] was “– (compounds with degradation less than 25% were not calculated and reported as “–”)”, the “Dmax (maximal degradation) AURKB” value [5] was 20.20% and the “DC50 (half-maximal degradation concentration) AURKA” value [6] was “– (compounds with degradation less than 25% were not calculated and reported as “–”)”. The “Dmax (maximal degradation) AURKA” value [6] was 21.70% and the “EC50 (concentration that decreases cell viability by 50%)” value (MV4-11 cells (naive)) was “— (compounds with decrease of cell viability less than 50% were not calculated and reported as “—”)”.
For COc1cc(Nc2ncc3c(n2)-c2ccc(Cl)cc2C(c2c(F)cccc2OC)=NC3)ccc1C(=O)NCCOCCOCCNC(=O)COc1cccc2c1C(=O)N(C1CCC(=O)NC1=O)C2=O (stereo not drawn) [JB170], the DC50 (AURKA [7]) is given as 28 nM.
In the case of O=C(COc1cccc2c1C(=O)N(C1CCC(=O)NC1=O)C2=O)NCCOCCOCCNC(=O)C1(Cc2cccc(Nc3nccs3)n2)CCC(Oc2cccc(Cl)c2F)CC1 (stereo not drawn) [JB300], the DC50 (AURKA [7]) is listed as 30 nM.
In the case of CCC(=O)N[C@H]1CC[C@@H](n2c(=O)cc(C)c3cnc(Nc4ccc(N5CCN(C(=O)CCCC#Cc6ccc7c(c6)CN(C6CCC(=O)NC6=O)C7=O)CC5)cc4OC)nc32)CC1 (stereo partly drawn) [LJB-1113157], the DC50 (TTK) is listed as 3.1 nM.
For COc1cc(N2CCC(O)CC2)ccc1Nc1nc(Nc2ccccc2S(=O)(=O)C(C)C)c2nc[nH]c2n1 [MPS1-IN-3, reference compound], the IC50 (human TTK) is given as 50 nM, the “DC50 (half-maximal degradation concentration) TTK” value [4] is given as “– (compounds with degradation less than 25% were not calculated and reported as “–”)” and the “Dmax (maximal degradation) TTK” value [4] is given as “inactive”. The DC50 ([5]; read-out: DC50 (half-maximal degradation concentration) AURKB) was 3210 nM, the Dmax ([5]; read-out: Dmax (maximal degradation) AURKB) was 43.3% and the DC50 ([6]; read-out: DC50 (half-maximal degradation concentration) AURKA) was 998 nM. For the same molecule, the Dmax ([6]; read-out: Dmax (maximal degradation) AURKA) was 41.7% and the EC50 (MV4-11 cells (naive); Homo sapiens, read-out: EC50 (concentration that decreases cell viability by 50%)) was 1270 nM.
In the case of c1nc2nc(Nc3ccc(N4CCOCC4)cc3)nc(NC3CCCCC3)c2[nH]1 [Reversine], the IC50 (AURKC) is listed as 400 nM.
